Results taken from patent US11536685B2, “High throughput assay for identifying microbial redox enzymes” (TRUSTEES OF BOSTON UNIVERSITY, priority 2020, dated 2022).
Read-outs that look alike come from different tables or passages of the source.

How the values were obtained:
[1] = system: C. ammoniagenes MAO; experiment: AUR fluorescence assay in Rosetta2 (DE3) cells expressing MAO; type: cell-based
[2] = system: Rosetta2 (DE3) cells expressing MAO; experiment: Cell viability of Rosetta2 (DE3) cells expressing MAO; type: cell-based, E. coli
[3] = system: C41 cells expressing MAO; experiment: Cell viability of C41 cells expressing MAO; type: cell-based, E. coli; settings: C41 AUR fluorescing cells expressing MAO
[4] = system: candidate MRE; experiment: Optimized MRE assay, clone responsive to hydrocortisone; type: cell-based; settings: Rosetta2 (DE3) cells, clone from mixture of seven gDNA libraries
Source text: Further analysis of the fluorescence cells identified two clones that expressed a candidate MRE responsive to lidocaine (FIG. 40A) and two clones that were responsive to cortisol (FIG. 40B). Additionally, the inventors also discovered one clone expressing a candidate MRE responsive to hydrocortisone (FIGS. 41A-41F).

[5] = biological target: T1, nicA2 (Pseudomonas putida, UniProt F8G0P2); experiment: FACS percentage of fluorescent cells on nicA2 induction; type: cell-based; settings: induced with 50 μM IPTG; APEX2, AUR and nicotine present
T1 construct: expressed in transfected cells; host or cells: E. coli
T1 sequence (F8G0P2 39-482): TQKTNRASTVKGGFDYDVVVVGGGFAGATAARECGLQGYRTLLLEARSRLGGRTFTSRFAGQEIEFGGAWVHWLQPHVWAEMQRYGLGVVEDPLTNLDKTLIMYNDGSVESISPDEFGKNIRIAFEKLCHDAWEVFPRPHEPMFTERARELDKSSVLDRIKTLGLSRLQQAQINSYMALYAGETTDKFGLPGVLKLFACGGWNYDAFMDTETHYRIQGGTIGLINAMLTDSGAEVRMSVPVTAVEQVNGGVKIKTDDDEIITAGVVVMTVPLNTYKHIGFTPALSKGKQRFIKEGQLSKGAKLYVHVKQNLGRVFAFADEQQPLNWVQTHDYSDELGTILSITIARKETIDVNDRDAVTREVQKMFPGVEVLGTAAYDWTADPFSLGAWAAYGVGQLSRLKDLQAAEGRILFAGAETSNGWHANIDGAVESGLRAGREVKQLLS

[6] = biological target: T2, NicA2 (Pseudomonas putida, UniProt F8G0P2); experiment: Chronoamperometric NicA2 electrochemical nicotine biosensor; type: biochemical, Pseudomonas putida S16; set-up: poly-histidine; made in house; host or cells: E. coli BL21 (DE3); settings: for chronoamperometric response to compound alone: added in the middle of a chronoamperometric experiment
Procedure: Sensor Preparation: Electrochemical experiments were performed with VersaSTAT MC™ (Ametek Inc.™, Pennsylvania, Pa.). Sensors were prepared with Screen-Printed Prussian Blue/Carbon Electrode (Metrohm USA™, Riverview, Fla.). […] The sensors were allowed to dry overnight at 4° C. with no light prior to use.
Chronoamperometric responses were recorded over time, with a potential −0.2 V (versus Ag/AgCl). […] Similar experiments were performed to evaluate the selectivity of the sensor to cotinine.
The electrochemical biosensor was composed of a Screen-Printed Prussian Blue/Carbon Electrode with a Ag/AgCl reference electrode (RE). […] Chronoamperometric responses were recorded over time with a potential −0.2 V versus the RE.
The selectivity of the biosensor was evaluated by measuring the chronoamperometric response in the presence of common interferents at relevant physiological concentrations in sweat (see e.g., FIG. 22C).

[7] = biological target: T2, NicA2; experiment: AUR fluorescence of cells expressing APEX2 and NicA2; type: cell-based, Pseudomonas putida S16

Compound	AUR fluorescence [1]	cell viability [2]	cell viability as compared to Rosetta2 (DE3) cells [3]	other results
NCCc1ccc(O)cc1 [tyramine]	produce fluorescent signal	do not decrease cell viability	decreased viability	–
C[C@]12CCC(=O)C=C1CC[C@@H]1[C@@H]2[C@@H](O)C[C@@]2(C)[C@H]1CC[C@]2(O)C(=O)CO [hydrocortisone]	–	–	–	fluorescence over time as compared to no hydrocortisone [4]: increased fluorescence
CC(C)S[C@@H]1O[C@H](CO)[C@H](O)[C@H](O)[C@H]1O [IPTG, isopropyl b-D-1-thiogalactopyranoside]	–	–	–	percentage of cells fluorescent [5]: 79.3%
NCCc1c[nH]c2ccccc12 [tryptamine]	produce fluorescent signal	do not decrease cell viability	decreased viability	–
NCC(O)c1ccc(O)cc1 (stereo not drawn) [octopamine]	produce fluorescent signal	do not decrease cell viability	decreased viability	–
CN1C(=O)CC[C@H]1c1cccnc1 [Cotinine]	–	–	–	effect upon the response to nicotine ([6]; 200 μM nicotine solution added to solution of the compound): minimal effect
CN1CCCC1c1cccnc1 (stereo not drawn) [nicotine]	–	substantially decreased	–	time of return to baseline ([6]; 200 μM nicotine): 6000 s; time to maximal current ([6]; 200 μM nicotine): 4000 s; Maximal current ([6]; 200 μM nicotine, 2 nmol NicA2, −0.2 V versus Ag/AgCl, PBS): ~250 nA; fluorescence of cells expressing APEX2 and NicA2 [7]: robust fluorescence
NCc1ccccc1 [benzylamine]	produce fluorescent signal	do not decrease cell viability	–	–
c1cncc(C2=NCCC2)c1 [myosmine]	–	–	–	response to nicotine addition after NicA2 was inhibited by myosmine [6]: Minimal responses; chronoamperometric response to compound alone [6]: Minimal responses; chronoamperometric response to compound alone ([6]; listed as Myosmine): Minimal response; response to nicotine addition after NicA2 was inhibited by myosmine ([6]; listed as Myosmine): Minimal response; fluorescence of cells expressing APEX2 and NicA2 [7]: not
